In patent publication US20010051591A1, “Safening crops from the phytotoxic effects of herbicidally active N-phosphonomethyl-glycines” (priority 2000, published 2001):

Legend:
Format in all cases: in vivo
[1] = system: soybean Variety A3234; test: Example 1: phytotoxic injury to soybean, tank mix sprayed on 12-day-old plants; details: clomazone 0 kg/ha, 21 days after treatment
Experimental: (§1) The aforementioned solutions were sprayed in admixture as a tank mix onto flats of 12-day-old soybean plants arranged in a randomized, block design. There were four replicates for each rate of application. The soybean plants were evaluated at 21 days after treatment for percent phytotoxic injury by comparison to tests conducted on untreated plants and plants treated with Herbicidal Compound only. The rate of application clomazone for the Safening Composition A, and the rate of application of glyphosate for the Herbicidal Compound are expressed below in kg/ha.

[2] = system: soybean variety Asgrow 2704; test: as above; details: clomazone 0 kg/ha, 21 days after treatment
Experimental: as §1

[3] = system: two soybean varieties; test: Example 1: average phytotoxic injury to the two soybean varieties; details: without Safening Composition A
Experimental: (§2) Glyphosate, tested as ROUNDUP® Ultra Herbicide (termed in Examples 1-3 as “Herbicidal Compound”), and COMMAND® 3 ME Herbicide comprised of at least one plant-safening, inorganic, water-soluble salt (calcium chloride), termed in Examples 1 and 2 as “Safening Composition A”, were tested as water solutions on two soybean varieties (Asgrow 2704 and Asgrow […]). The aforementioned solutions were sprayed in admixture as a tank mix onto flats of 12-day-old soybean plants arranged in a randomized, block design. There were four replicates for each rate of application. The soybean plants were evaluated at 21 days after treatment for percent phytotoxic injury by comparison to tests conducted on untreated plants and plants treated with Herbicidal Compound only. The rate of application clomazone for the Safening Composition A, and the rate of application of glyphosate for the Herbicidal Compound are expressed below in kg/ha.
For example, at the 0.2, 0.4, and 0.8 kg/ha rate of application of Herbicidal Compound, the average injury to the two soybean varieties is about 18%, 46%, and 70%, respectively.

[4] = system: Corn; test: Example 2: phytotoxic injury to crops, tank mix spray; details: glyphosate 0.8 kg/ha, clomazone 0 kg/ha; 14 days after treatment
Experimental: as §2
(§3) As set forth in Example 2, the Herbicidal Compound and Safening Composition A were tested in the same manner as described in Example 1. The aforementioned Herbicidal Compound and Safening Composition A were sprayed as a tank mix onto 10-14 day old crop and weed species. The tests were evaluated at 14 days after treatment for percent injury by comparison to tests conducted on untreated plants and weeds, and plants and weeds treated with Herbicidal Compound only.

[5] = system: Cucumber; test: as above; details: glyphosate 0.4 kg/ha, clomazone 0 kg/ha; 14 days after treatment
Experimental: as §2, §3

[6] = system: Pinto Bean; test: as above; details: glyphosate 0.4 kg/ha, clomazone 0 kg/ha; 14 days after treatment
Experimental: as §2, §3

[7] = system: Rape; test: as above; details: glyphosate 0.8 kg/ha, clomazone 0 kg/ha; 14 days after treatment
Experimental: as §2, §3

[8] = system: Rice; test: as above; details: glyphosate 0.4 kg/ha, clomazone 0 kg/ha; 14 days after treatment
Experimental: as §2, §3

[9] = system: Sorghum; test: as above; details: clomazone 0 kg/ha, 14 days after treatment
Experimental: as §2, §3

[10] = system: Tomato; test: as above; details: clomazone 0 kg/ha, 14 days after treatment
Experimental: as §2, §3

In the case of O=C(O)CNCP(=O)(O)O [Herbicidal Compound, Glyphosate], the “Percent Phytotoxic Injury To Soybean Variety A3234” value ([1]; glyphosate 0.2 kg/ha) is reported as 22%, the “Percent Phytotoxic Injury To Soybean Variety A3234” value ([1]; glyphosate 0.4 kg/ha) is reported as 54% and the “Percent Phytotoxic Injury To Soybean Variety A3234” value ([1]; glyphosate 0.8 kg/ha) is reported as 81%. The “Percent Phytotoxic Injury To Soybean Variety A2704” value ([2]; glyphosate 0.2 kg/ha) was 14%, the “Percent Phytotoxic Injury To Soybean Variety A2704” value ([2]; glyphosate 0.4 kg/ha) was 38% and the “Percent Phytotoxic Injury To Soybean Variety A2704” value ([2]; glyphosate 0.8 kg/ha) was 60%. For the same molecule, the “average injury to the two soybean varieties” value (from here on “average injury”) ([3]; glyphosate 0.2 kg/ha) was “about 18%”, the “average injury” value ([3]; glyphosate 0.4 kg/ha) was ~46% and the “average injury” value ([3]; glyphosate 0.8 kg/ha) was ~70%. The “Percent Phytotoxic Injury Corn” value [4] was 90%, the “Percent Phytotoxic Injury Cucumber” value [5] was 77% and the “Percent Phytotoxic Injury Pinto Bean” value [6] was 63%. The “Percent Phytotoxic Injury Rape” value [7] was 84%, the “Percent Phytotoxic Injury Rice” value [8] was 65% and the “Percent Phytotoxic Injury Sorghum” value ([9]; glyphosate 0.4 kg/ha) was 76%. The “Percent Phytotoxic Injury Sorghum” value ([9]; glyphosate 0.8 kg/ha) was 100%, the “Percent Phytotoxic Injury Tomato” value ([10]; glyphosate 0.2 kg/ha) was 95% and the “Percent Phytotoxic Injury Tomato” value ([10]; glyphosate 0.4 kg/ha) was 100%.
